Where two headings read alike, the source gives them in different places.
What was measured:
[1] = test system: SARS-COV-2; experiment: Combination with SARS-COV-2 nsp14 (exonuclease) inhibitors in Calu-3 cells, infectious virus titers; type: cell-based; conditions: for EC99 mean / EC50 / EC90: Calu-3, alone or in combination as labelled; for EC50 / EC90: Severe acute respiratory syndrome coronavirus 2; for effect of co-treatment with raltegravir or dolutegravir (iEXO) on inhibition of SARS-COV-2: calu-3, drug 10 μM, raltegravir or dolutegravir 5 μM
[2] = test system: SARS-COV-2; conditions: for SI: CC50/EC50
[3] = Cytotoxicity assay (XTT) in Calu-3 cells; type: cell-based, human; conditions: human
Description: (§1) In parallel, cytotoxicity assays were performed.

[4] = test system: Calu-3 cells; experiment: Cytotoxicity assay (XTT) in Calu-3 cells; type: cell-based, human
Description: as §1

[5] = test system: Salmonella typhimirium TA 97a, TA 98, TA 100, TA 102 and TA 1535; experiment: Bacterial reverse mutation (Ames) test
[6] = Cytotoxicity assay (XTT) in Huh-7 cells; type: cell-based; conditions: human
Description: In parallel, cytotoxicity assays were performed. Monolayers of 1.5×10^4 cells in 96-well plates were treated for 3 days with various concentrations (semi-log dilutions from 1,000 to 10 μM) of the antiviral drugs. Then, 5 mg/mL 2,3-bis-(2-methoxy-4-nitro-5-sulfophenyl)-2H-tetrazolium-5-carboxanilide (XTT) in DMEM was added to the cells in the presence of 0.01% of N-methyl dibenzopyrazine methyl sulfate (PMS).

[7] = test system: SARS-COV-2; experiment: SARS-COV-2 viral RNA synthesis in Vero cells (real time RT-PCR); type: cell-based; conditions: for EC50: Severe acute respiratory syndrome coronavirus 2, Vero (MOI 0.01 24 h), read-out: EC50
[8] = test system: SARS-COV-2; experiment: SARS-COV-2 viral RNA synthesis in HuH-7 cells (real time RT-PCR); type: cell-based; conditions: for SI: Huh-7, CC50/EC50; for EC50: Severe acute respiratory syndrome coronavirus 2, Huh-7 (MOI 0.1 48 h), read-out: EC50
[9] = test system: SARS-COV-2; experiment: SARS-COV-2 RNA loads in human primary monocytes; type: cell-based; conditions: 24 h
Description: (§2) FIG. 5A, 5B and 5C. The compounds impair SARS-COV-2 RNA synthesis and SARS-COV-2-induced release of inflammatory mediators in human primary monocytes.
(§3) Human primary monocytes were obtained after 3 h of plastic adherence of peripheral blood mononuclear cells (PBMCs). PBMCs were isolated from healthy donors by density gradient centrifugation (Ficoll-Paque, GE Healthcare). PBMCs (2.0×10^6 cells) were plated onto 48-well plates (NalgeNunc) in RPMI-1640 without serum for 2 to 4 h. Non-adherent cells were removed, and the remaining monocytes were maintained in DMEM with 5% human serum (HS; Millipore) and penicillin/streptomycin. Monocytes were infected at MOI of 0.1. After 1 h inoculation period, cells were washed with phosphate saline buffer (PBS) to remove unbounded viruses and treated with 1 μM of the indicated compounds. After 24 h after infection, cell monolayers werc lysed total viral RNA was extracted, quantitative RT-PCR was performed, to detect the SARS-COV-2 and the housekeeping gene RNAse P.

[10] = Cytotoxicity assay (XTT) in Vero cells; type: cell-based; conditions: African green monkey
Description: as §1

[11] = test system: TNF-α and IL-6; experiment: TNF-α and IL-6 levels in supernatant of SARS-COV-2-infected human primary monocytes; type: cell-based; conditions: 24 h
Description: as §2, §3

[12] = test system: SARS-COV-2; experiment: SARS-COV-2 viral RNA synthesis in Calu-3 cells (real time RT-PCR); type: cell-based; conditions: 1.0 μM
[13] = Severe acute respiratory syndrome coronavirus 2, Calu-3, 72 h, Calu-3 (MOI 0.5 72 h), daily treatment
[14] = Severe acute respiratory syndrome coronavirus 2, Calu-3, Table 6, Calu-3, daily treatment
[15] = Severe acute respiratory syndrome coronavirus 2, Calu-3, Table 6, Calu-3, single treatment
[16] = Table 6, Calu-3, daily treatment
[17] = Table 6, Calu-3, single treatment
[18] = Calu-3, single moment treatment
[19] = Severe acute respiratory syndrome coronavirus 2, Calu-3, 72 h, Calu-3 (MOI 0.5 72 h), single moment treatment

SMILES: COC(=O)N[C@H](C(=O)N1CCC[C@H]1C(=O)Nc1ccc([C@@H]2CC[C@@H](c3ccc(NC(=O)[C@@H]4CCCN4C(=O)[C@@H](NC(=O)OC)C(C)C)cc3)N2c2ccc(C(C)(C)C)cc2)cc1)C(C)C [Ombitasvir]
- EC99 mean [1]: 18 µM
- EC50 [1]: 0.4 µM
- EC90 [1]: 3.3 µM

SMILES: CC(C)C(=O)OC[C@H]1O[C@@H](n2ccc(NO)nc2=O)[C@H](O)[C@@H]1O [MK-4482, N-4-hydroxycytidine-5′-isopropyl ester, reference compound]
- EC99 mean [1]: 9 µM
- EC50 [1]: 0.8 µM
- EC90 [1]: 7 µM
- efficiency impaired due to daily treatment ([2]; Calu-3): 2 times
- SI ([2]; Calu-3, daily treatment): 2900 µM
- EC50 [2, 13]: 0.02 µM
- EC90 [2, 13]: 8.6 µM
- EC50 [2, 14]: 0.02 µM
- EC90 [2, 14]: 8.6 µM
- EC50 [2, 15]: 0.72 µM
- EC90 [2, 15]: 3.4 µM
- SI [2, 16]: 2,900
- SI [2, 17]: 80
- CC50 at 3 days [3, 16]: 58 µM
- CC50 at 3 days [3, 17]: 58 µM
- CC50 ([4]; Calu-3, daily treatment): 58 µM

SMILES: Nc1ccc2cc3ccccc3cc2c1 [2-aminoanthracene, reference compound]
- Mutagenicity ([5]; TA 102 +S9, positive control 5 μg/plate): +
- Mutagenicity ([5]; TA 1535 +S9, positive control 2.5 μg/plate): +

SMILES: COC(=O)N[C@H](C(=O)N1CCC[C@H]1c1nc2cc([C@H]3CC[C@H](c4cc5nc([C@@H]6CCCN6C(=O)[C@@H](NC(=O)OC)[C@@H](C)OC)[nH]c5cc4F)N3c3cc(F)c(N4CCC(c5ccc(F)cc5)CC4)c(F)c3)c(F)cc2[nH]1)[C@@H](C)OC [Pibrentasvir]
- EC99 mean [1]: 19 µM
- EC50 [1]: 0.7 µM
- EC90 [1]: 4.2 µM

SMILES: [N-]=[N+]=[N-] [sodium azide, reference compound]
- Mutagenicity ([5]; TA 100 −S9, positive control 1.5 μg/plate): +
- Mutagenicity ([5]; TA 1535 −S9, positive control 1.5 μg/plate): +

SMILES: C/C(=C\CNc1ncnc2c1ncn2[C@@H]1O[C@H](CO)[C@@H](O)[C@H]1O)CO [MB-804, zeatin riboside]
- effect of co-treatment with raltegravir or dolutegravir (iEXO) on inhibition of SARS-COV-2 [1]: synergistic
- CC50 at 3 days [6]: 550 µM
- EC50 [7]: 1.4 µM
- SI ([7]; Vero, CC50/EC50): 454
- SI [8]: 78
- EC50 [8]: 7.2 µM
- SI [2, 18]: 500
- EC50 [2, 19]: 1.2 µM
- EC90 [2, 19]: 9.1 µM
- viral RNA levels/cell [9]: reduced
- CC50 at 3 days [3, 18]: 580 µM
- CC50 at 3 days [10]: 636 µM

SMILES: OC[C@H]1O[C@@H](n2cnc3c(NCc4ccco4)ncnc32)[C@H](O)[C@@H]1O [MB-801, kinetin riboside]
- effect of co-treatment with raltegravir or dolutegravir (iEXO) on inhibition of SARS-COV-2 [1]: synergistic
- CC50 at 3 days [6]: 229 µM
- EC50 [7]: 8 µM
- SARS-CoV-2-induced enhancement of IL-6 levels in culture supernatant [11]: reduced
- SARS-CoV-2-induced enhancement of TNF-α levels in culture supernatant [11]: reduced
- SI [8]: 2290
- EC50 [8]: 0.1 µM
- SI ([2]; Calu-3, daily treatment): 26500 µM
- SI [2, 18]: 3055
- EC50 [2, 13]: 0.02 µM
- EC90 [2, 13]: 3.7 µM
- EC50 [2, 19]: 0.18 µM
- EC90 [2, 19]: 7.2 µM
- EC50 [2, 14]: 0.02 µM
- EC90 [2, 14]: 3.7 µM
- EC50 [2, 15]: 0.18 µM
- EC90 [2, 15]: 7.2 µM
- SI [2, 16]: 26,500
- SI [2, 17]: 3.055
- viral RNA levels/cell [9]: reduced
- inhibition of SARS-COV-2 RNA synthesis [12]: best profiles
- CC50 at 3 days [3, 16]: 530 µM
- CC50 at 3 days [3, 17]: 550 µM
- CC50 ([4]; Calu-3, daily treatment): 530 µM
- CC50 [4, 18]: 550 µM

SMILES: NC(=O)c1nc(F)c[nH]c1=O [Favipiravir]
- EC50 [1]: 7.8 µM

SMILES: c1coc(CNc2ncnc3c2ncn3C2CCCCO2)c1 (stereo not drawn) [MB-906]
- anti-coronavirus activity (SARS-COV-2 replication) [8]: not endowed with anti-coronavirus activity
- anti-coronavirus activity (SARS-COV-2 replication) [2]: not endowed with anti-coronavirus activity

Source: US20240207302A1, “ANTIVIRAL COMPOUNDS, METHODS FOR THE MANUFACTURING OF COMPOUNDS, ANTIVIRAL PHARMACEUTICAL COMPOSITION, USE OF THE COMPOUNDS AND METHOD FOR THE ORAL TREATMENT OF CORONAVIRUS INFECTION AND RELATED DISEASES THEREOF” (priority 2021, published 2024)
